How the values were obtained:
protein phosphatase-2A1 = protein phosphatase-2A1 (Homo sapiens, UniProt P67775); assay: Assay of purified protein phosphatase-2A1 in vitro with 32P-labeled phosphorylase a as substrate; type: biochemical; parameters: Protein phosphatase-2A1 purified from CD^4+ T cells as described in materials and method; endogenous in cells; host or cells: Jurkat cells; enzyme purified by DEAE Sepharose, Sephacryl S-300 HR and poly-L-lysine Agarose; settings: purified enzyme from Jurkat cells, in vitro
Protocol: Protein phosphatase-2A1 purified from CD^4+ T cells as described in materials and method was assayed in the presence of various concentrations of SYRAPRO-2000. 100 percent protein phosphatase-2A1 activity is equivalent to 0.005 unit. Similar result were obtained in 3 independent experiments.
The effect of synthesized SYRAPRO-2000 on purified protein phosphatase-2A1 can be determined in vitro. Protein phosphatase-2A1 can be assayed using ^32P-labeled phosphorylase a as substrate in the presence of various concentrations of SYRAPRO-2000. Protein phosphatase-2A1 is activated in the presence of SYRAPRO-2000.
Protein phosphatase-1 was assayed as described in (Cohen 1988). Protein phosphatase-2B was assayed as described in (Tung 1986). Protein phosphatase-2C was assayed as described in (Tung 1986) except Ca^2+ and calmodulin were omitted. The assay of protein phosphatases-2A1 consisted of 0.02 ml of enzyme solution in 50 mM Imidazole-Cl pH 7.2, 0.2 mM EGTA, 0.1% (v/v) 2-mercaptoethanol and 1 mg/ml bovine serum albumin (Assay Buffer), 0.01 ml of inhibitor-2 at 600 nM in Assay Buffer, 0.01 ml of protamine at 60 μg/ml in Assay Buffer or 0.01 ml of SYRAPRO-2000 at different concentrations in Assay Buffer or 0.01 ml of Assay Buffer alone, 0.02 ml of ^32P-labeled phosphorylase a at 3 mg/ml in Assay Buffer containing 15 mM caffeine. The assay components were preincubated for 10 minutes prior to initiating the reaction with ^32P-labeled phosphorylase a. One unit of protein phosphatase activity is that amount of enzyme which catalyzes the release of 1 nmol of phosphate from ^32P-labeled substrate per min at 30° C.
Jurkat cells, a human transformed CD^4+ T cell line, were grown in grown in RPMI 1680 supplemented with 5% (v/v) fetal bovine serum at 37° C. in 95% air/5% CO2 in a humidified incubator. 2.4 liters of cells were collected by centrifugation at 4200 rpm in a low speed centrifuge for 10 minutes. The cells were homogenized in 80 ml of 50 mM Imidazole-Cl pH 7.2, 2 mM EGTA, 2 mM EDTA, 0.1% (v/v) 2-mercaptoethanol, 0.2 mM PMSF, 1 mM benzamidine, 4 μg/ml aprotinin, 4 μg/ml leupeptin, 4 μg/ml pepstatin, 0.1 mM TLCK, 0.1 mM TPCK, 1 mM sodium orthovanadate and 10% (v/v) glycerol by 40 strokes in a glass hand held homogenizer. The homogenate was centrifuged at 29000 rpm in a high speed centrifuge for 30 minutes. The supernatant (i.e the extract) was collected and loaded onto a DEAE Sepharose column (1.5×6 cm) equilibrated in 25 mM Imidazole-Cl pH 7.2, 0.2 mM EGTA, 0.1% (v/v) 2-mercaptoethanol, 0.1 mM PMSF, 1 mM benzamidine and 10% (v/v) glycerol (Buffer A). The column was washed with 50 ml of Buffer and then eluted with a 200 ml linear gradient of Buffer A to Buffer A plus 0.4 M NaCl. The eluted fractions were then assayed for phosphorylase phosphatase activity in the presence of 100 nM inhibitor-2 and 10 μg/ml of protamine. Two major peaks of phosphorylase phosphatase were observed. The first and second peak represent protein phosphatase-2A0 and protein phosphatase-2A1 respectively. […] The major activity eluting as a species of apparent molecular mass 300 kDa was collected, diluted four fold in Buffer A and loaded onto a poly-L-lysine Agarose Column (1.5×4 cm) equilibrated in Buffer A. The column was washed with 50 ml of Buffer A and then eluted with a 200 ml linear gradient of Buffer A to Buffer A plus 0.5 M NaCl. The active fractions eluting at ˜0.30 M NaCl salt concentration was pooled, concentrated by vacuum dialysis and stored at ^−20° C. in 50 mM Imidazole-Cl pH 7.2, 0.2 mM EGTA in the presence of 50% (v/v) glycerol. The highly purified enzyme consisted of the characteristic subunits of protein phosphatase-2A1, namely the A, B and C subunits. […] It is difficult to determine the activity of protein phosphatase-2A1 in CD^4+ T cell extract. However, assuming that it represented about 66 percent of total type 2A protein phosphatase activity in CD^4+ T cell extract, the specific activity of the enzyme in extract was estimated to be 0.3 unit/mg. […]

protein phosphatase-2C = assay: Protein phosphatase-2C assay; type: biochemical, pig; settings: various concentrations
Protocol: Protein phosphatase-1 (squares), protein phosphatase-2A1 (circles), protein phosphatase-2B (triangles) and protein phosphatase-2C (stars) were assayed in the presence of various concentrations of HIV-1 Vpr^71-96. 100 percent protein phosphatase activity is equivalent to 0.005 unit. Similar results were obtained in 3 independent experiments.
^32P-labeled phosphorylase a was prepared by phosphorylation of phosphorylase b with phosphorylase kinase as described in (Cohen 1988). ^32P-labeled casein was prepared by phosphorylation of casein with protein kinase A as described in (Tung 1986). Protein phosphatase-1 was purified from rabbit skeletal muscle as described in (Cohen 1988). Protein phosphatase-1 inhibitor-2 was purified from rabbit skeletal muscle as described in (Yang 1981). Protein phosphatase-2A0 and protein phosphatase-2A1 from pig brain and from pig liver were purified as described in (Tung 1985). Protein phosphatase-2A0 and protein phosphatase-2A1 from pig adipose tissue were highly purified by successive chromatography of pig subcutaneous adipose tissue extracts on DEAE Sepharose, Poly-L-lysine Agarose, Sephacryl S-300 HR and thiophosphorylase-a-Sepharose-4B as described in (Tung 1985). Protein phosphatase-2B was purified from pig brain as described in (Tung 1986). […]

Chain of protein phosphatase-2A1 (P67775 whole entry): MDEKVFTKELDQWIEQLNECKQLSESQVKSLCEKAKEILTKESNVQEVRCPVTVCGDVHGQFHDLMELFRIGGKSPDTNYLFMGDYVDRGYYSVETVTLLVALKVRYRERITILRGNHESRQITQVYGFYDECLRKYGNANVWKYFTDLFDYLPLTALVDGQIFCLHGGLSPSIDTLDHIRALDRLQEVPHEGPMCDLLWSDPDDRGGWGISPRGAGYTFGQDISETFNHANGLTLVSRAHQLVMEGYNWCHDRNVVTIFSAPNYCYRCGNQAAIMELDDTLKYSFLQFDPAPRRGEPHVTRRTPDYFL
Chain of protein phosphatase-2A1 (P30153 whole entry partner): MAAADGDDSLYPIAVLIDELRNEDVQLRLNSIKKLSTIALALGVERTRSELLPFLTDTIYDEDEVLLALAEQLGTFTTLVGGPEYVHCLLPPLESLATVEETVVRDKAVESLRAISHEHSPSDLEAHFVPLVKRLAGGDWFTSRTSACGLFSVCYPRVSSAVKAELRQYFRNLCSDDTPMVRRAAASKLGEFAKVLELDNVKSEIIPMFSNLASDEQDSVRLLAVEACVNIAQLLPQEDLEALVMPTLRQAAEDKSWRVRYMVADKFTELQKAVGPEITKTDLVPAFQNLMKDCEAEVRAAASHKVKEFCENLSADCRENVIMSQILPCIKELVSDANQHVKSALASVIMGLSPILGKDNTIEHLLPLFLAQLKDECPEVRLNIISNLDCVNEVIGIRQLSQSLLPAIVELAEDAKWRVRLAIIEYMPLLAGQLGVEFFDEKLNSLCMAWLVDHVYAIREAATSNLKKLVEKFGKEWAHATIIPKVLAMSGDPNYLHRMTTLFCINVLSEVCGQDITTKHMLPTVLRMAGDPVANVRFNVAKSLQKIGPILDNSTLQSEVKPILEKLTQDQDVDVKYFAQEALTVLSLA
Chain of protein phosphatase-2A1 (P63151 whole entry partner): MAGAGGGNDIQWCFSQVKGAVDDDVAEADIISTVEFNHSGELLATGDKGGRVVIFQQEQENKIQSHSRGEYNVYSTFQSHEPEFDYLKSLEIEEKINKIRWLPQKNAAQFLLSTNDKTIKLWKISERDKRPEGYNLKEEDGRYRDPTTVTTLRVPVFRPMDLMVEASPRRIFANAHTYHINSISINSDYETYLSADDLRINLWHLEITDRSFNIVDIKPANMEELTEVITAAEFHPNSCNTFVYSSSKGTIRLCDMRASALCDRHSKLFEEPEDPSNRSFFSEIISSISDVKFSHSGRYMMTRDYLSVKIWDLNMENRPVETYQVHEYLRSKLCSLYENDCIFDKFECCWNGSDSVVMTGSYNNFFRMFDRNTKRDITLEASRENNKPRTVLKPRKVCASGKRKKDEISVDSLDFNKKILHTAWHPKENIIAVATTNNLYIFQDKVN

CC[C@H](C)[C@H](NC(=O)[C@H](CCCNC(=N)N)NC(=O)[C@H](CO)NC(=O)[C@H](Cc1c[nH]cn1)NC(=O)[C@H](CCCNC(=N)N)NC(=O)[C@H](CS)NC(=O)CNC(=O)[C@@H](NC(=O)[C@H](CCCNC(=N)N)NC(=O)[C@H](Cc1ccccc1)NC(=O)[C@@H](N)Cc1c[nH]cn1)[C@@H](C)CC)C(=O)NCC(=O)N[C@H](C(=O)N[C@H](C(=O)N[C@@H](CCCNC(=N)N)C(=O)N[C@@H](CCC(N)=O)C(=O)N[C@@H](CCCNC(=N)N)C(=O)N[C@@H](CCCNC(=N)N)C(=O)N[C@@H](C)C(=O)N[C@@H](CCCNC(=N)N)C(=O)N[C@@H](CC(N)=O)C(=O)NCC(=O)N[C@@H](C)C(=O)N[C@@H](CO)C(=O)N[C@@H](CCCNC(=N)N)C(=O)N[C@@H](CO)C(=O)O)[C@@H](C)O)C(C)C [SYRAPRO-2000]
activation of protein phosphatase-2A1 (protein phosphatase-2A1): 7 fold
concentration above which there was inhibition of protein phosphatase-2A1 (biphasic effect) (protein phosphatase-2A1): above 1000 nM
EC50 (protein phosphatase-2A1; read-out: half maximal activation of protein phosphatase-2A1): ~300 nM
effect on activity of protein phosphatase-2C (protein phosphatase-2C): negligible effect

Source: patent US20060252683A1, “Preparation of a peptide compound (SYRAPRO-2000) and its use for the activation of protein phosphatase-2A1 enzyme” (priority 2005, published 2006)
